Reference: patent publication EP4806435A1, “DIHYDROCHROMENE-DERIVATIVE-CONTAINING THERAPEUTIC AGENT FOR CANCER” (Sumitomo Pharma Co., Ltd., priority 2023, dated 2025)
Read-outs that look alike come from different tables or passages of the source.

Assay: Phase 1 clinical trial: plasma pharmacokinetics
Format: in vivo, human
Conditions: for Tmax / half-life / Cmax / AUC / AUC(0-t): human, plasma, oral; for half-life: read-out: Effective T1/2 (converted)
Experimental: Summary statistics based on preliminary data were obtained for the pharmacokinetics of Compound 1 in patients receiving once-daily doses ranging from 20 mg to 240 mg (Table 5). The mean plasma concentration-time curves of Compound 1 in the once-daily dose groups ranging from 20 mg to 240 mg are shown in Figure 11. In this study, one cycle consists of 28 days, and Cycle 1 Day 1 refers to Day 1 of the first cycle. […] Accumulation was observed after repeated administration. […] Based on these accumulation ratios, the half-life of Compound 1 was estimated to be approximately 4 days. Based on the currently available data, plasma concentrations are considered to have reached steady state by Day 15.
Summary statistics based on preliminary data were obtained for the pharmacokinetics of Compound 1 in patients in the 20 mg QD, 40 mg QD, 80 mg QD, 120 mg QD, 180 mg QD, 240 mg QD, 360 mg QD, and 480 mg daily (240 mg BID) dose groups (Table 6). The mean plasma concentration-time curves of Compound 1 in the 20 mg QD to 480 mg daily (240 mg BID) dose groups are shown in Figure 12 (in Figure 12, Compound 1 is denoted as "DSP-0390"). In this study, one cycle consists of 28 days, and Cycle 1 Day 1 refers to Day 1 of the first cycle. […] The median Tmax ranged from 2 to 8 hours. Accumulation was observed after repeated administration, and assuming linearity based on the observed accumulation ratios, the estimated elimination half-life was considered to be on the order of several days (approximately 1 to 6 days) (data cut-off: March 2024).

[1] = repeated administration, 20 mg to 240 mg once daily, cut-off April 2023

Work on `CC1(C)Oc2cc(Cl)ccc2[C@@H]2OCC3(CCN(CCn4ccnc4)CC3)C[C@H]21` [Compound 1, (4'aR,10'bR)-8'-chloro-1-[2-(1H-imidazol-1-yl)ethyl]-5',5'-dimethyl-4'a,10'b-dihydro-2'H,4'H,5'H-spiro[piperidine-4,3'-pyrano[3,2-c][1]benzopyran] diphosphate] yielded a Tmax (180 mg, Cycle 2 Day 1, 180 mg, QD, cut-off April 2023, read-out: Tmax (median)) of 7 h, a half-life (240 mg, 240 mg QD, cut-off March 2024) of 45.6 h and a half-life (240 mg, 480 mg (240 mg BID), cut-off March 2024) of 16.8 h. It also gave a Cmax (240 mg, Cycle 1, Day 1, 240 mg QD, cut-off March 2024, read-out: Cmax) of 177 ng/mL, a Tmax (240 mg, Cycle 1, Day 1, 240 mg QD, cut-off March 2024, read-out: Tmax [a] median value) of 2 h and an AUC (240 mg, Cycle 1, Day 1, 240 mg QD, tau = 24 hours, cut-off March 2024, read-out: AUCtau [b]) of 1620 ng·h/mL. It also gave a Cmax (240 mg, Cycle 1, Day 1, 480 mg (240 mg BID), cut-off March 2024, read-out: Cmax) of 143 ng/mL, a Tmax (240 mg, Cycle 1, Day 1, 480 mg (240 mg BID), cut-off March 2024, read-out: Tmax [a] median value) of 4 h and an AUC (240 mg, Cycle 1, Day 1, 480 mg (240 mg BID), n=1, tau = 12 hours, cut-off March 2024, read-out: AUCtau [b]) of 1980 ng·h/mL. It also gave an AUC(0-t) (240 mg, Cycle 1 Day 1, 240 mg, QD, cut-off April 2023, read-out: AUC0-24 (geometric mean)) of 1480 ng·h/mL, an AUC(0-t) (240 mg, Cycle 1 Day 1, 240 mg, QD, cut-off April 2023, read-out: AUC0-24 (mean)) of 1510 ng·h/mL and an AUC(0-t) (240 mg, Cycle 1 Day 1, 240 mg, QD, cut-off April 2023, read-out: AUC0-24 (median)) of 1620 ng·h/mL. For the same compound, the Cmax (240 mg, Cycle 1 Day 1, 240 mg, QD, cut-off April 2023, read-out: Cmax (geometric mean)) was 145 ng/mL, the Cmax (240 mg, Cycle 1 Day 1, 240 mg, QD, cut-off April 2023, read-out: Cmax (mean)) was 153 ng/mL and the Cmax (240 mg, Cycle 1 Day 1, 240 mg, QD, cut-off April 2023, read-out: Cmax (median)) was 148 ng/mL. For the same compound, the Tmax (240 mg, Cycle 1 Day 1, 240 mg, QD, cut-off April 2023, read-out: Tmax (mean)) was 3 h, the Tmax (240 mg, Cycle 1 Day 1, 240 mg, QD, cut-off April 2023, read-out: Tmax (median)) was 2 h and the Cmax (240 mg, Cycle 2, Day 1, 240 mg QD, cut-off March 2024, read-out: Cmax,ss) was 316 ng/mL. For the same compound, the Tmax (240 mg, Cycle 2, Day 1, 240 mg QD, cut-off March 2024, read-out: Tmax,ss [a] median value) was 5 h, the AUC (240 mg, Cycle 2, Day 1, 240 mg QD, tau = 24 hours, cut-off March 2024, read-out: AUCtau,ss [b]) was 5330 ng·h/mL and the Cmax (240 mg, Cycle 2, Day 1, 480 mg (240 mg BID), cut-off March 2024, read-out: Cmax,ss) was 346 ng/mL. It also gave a Tmax (240 mg, Cycle 2, Day 1, 480 mg (240 mg BID), cut-off March 2024, read-out: Tmax,ss [a] median value) of 7 h, an AUC (240 mg, Cycle 2, Day 1, 480 mg (240 mg BID), n=1, tau = 12 hours, cut-off March 2024, read-out: AUCtau,ss [b]) of 3180 ng·h/mL and an AUC(0-t) (240 mg, Cycle 2 Day 1, 240 mg, QD, N=1, cut-off April 2023, read-out: AUC0-24 (geometric mean)) of 6670 ng·h/mL. It also gave an AUC(0-t) (240 mg, Cycle 2 Day 1, 240 mg, QD, N=1, cut-off April 2023, read-out: AUC0-24 (mean)) of 6670 ng·h/mL, an AUC(0-t) (240 mg, Cycle 2 Day 1, 240 mg, QD, N=1, cut-off April 2023, read-out: AUC0-24 (median)) of 6670 ng·h/mL and a Cmax (240 mg, Cycle 2 Day 1, 240 mg, QD, cut-off April 2023, read-out: Cmax (geometric mean)) of 359 ng/mL. The Cmax (240 mg, Cycle 2 Day 1, 240 mg, QD, cut-off April 2023, read-out: Cmax (mean)) was 360 ng/mL, the Cmax (240 mg, Cycle 2 Day 1, 240 mg, QD, cut-off April 2023, read-out: Cmax (median)) was 360 ng/mL and the Tmax (240 mg, Cycle 2 Day 1, 240 mg, QD, cut-off April 2023, read-out: Tmax (mean)) was 7 h. The Tmax (240 mg, Cycle 2 Day 1, 240 mg, QD, cut-off April 2023, read-out: Tmax (median)) was 7 h, the half-life (360 mg, 360 mg QD, cut-off March 2024) was 24 h and the Cmax (360 mg, Cycle 1, Day 1, 360 mg QD, cut-off March 2024, read-out: Cmax) was 359 ng/mL. The Tmax (360 mg, Cycle 1, Day 1, 360 mg QD, cut-off March 2024, read-out: Tmax [a] median value) was 4 h, the AUC (360 mg, Cycle 1, Day 1, 360 mg QD, tau = 24 hours, cut-off March 2024, read-out: AUCtau [b]) was 4110 ng·h/mL and the Cmax (360 mg, Cycle 2, Day 1, 360 mg QD, cut-off March 2024, read-out: Cmax,ss) was 489 ng/mL. The Tmax (360 mg, Cycle 2, Day 1, 360 mg QD, cut-off March 2024, read-out: Tmax,ss [a] median value) was 4 h, the AUC (360 mg, Cycle 2, Day 1, 360 mg QD, tau = 24 hours, cut-off March 2024, read-out: AUCtau,ss [b]) was 8490 ng·h/mL and the AUC(0-t) (Cycle 1 Day 1, 20 mg to 240 mg once daily, cut-off April 2023, read-out: geometric mean of AUC0-24, range over all dose groups) was 76 to 1480 ng·h/mL. The Cmax (Cycle 1 Day 1, 20 mg to 240 mg once daily, cut-off April 2023, read-out: geometric mean of Cmax, range over all dose groups) was 4 to 145 ng/mL, the Tmax (Cycle 1 Day 1, 20 mg to 240 mg once daily, cut-off April 2023, read-out: median Tmax, range over all dose groups) was 2 to 8 h and the AUC(0-t) (Cycle 2 Day 1, 20 mg to 240 mg once daily, cut-off April 2023, read-out: geometric mean of AUC0-24, range over all dose groups) was 556 to 6670 ng·h/mL. For the same compound, the Cmax (Cycle 2 Day 1, 20 mg to 240 mg once daily, cut-off April 2023, read-out: geometric mean of Cmax, range over all dose groups) was 27.7 to 359 ng/mL, the Tmax (Cycle 2 Day 1, 20 mg to 240 mg once daily, cut-off April 2023, read-out: median Tmax, range over all dose groups) was 2 to 7 h and the “plasma concentrations reached steady state” value (once-daily dosing, cut-off April 2023) was ≤ 15 days. For the same compound, the “dose dependence of exposure” value (range of 20 mg to 360 mg QD) was “increased in a dose-dependent manner”, the “mean accumulation ratio for AUC0-24, range over dose groups” value [1] was 3.9-8.6 and the “mean accumulation ratio for Cmax, range over dose groups” value [1] was 2.6-6.2.
